Literature values as cited in patent publication US20080027034A1, “Ciclesonide and Syk Inhibitor Combination and Method of Use Thereof” (priority 2004, published 2008).

Key:
[1] = not given; remark: listed apart in the source
[2] = compared with budesonide

metabolism by liver oxidases (liver oxidases): very high | concentration of the drug in the lungs (lungs): high | absorption after oral administration (oral administration): only moderately absorbed | plasma half-life (plasma): low
SMILES: CC(C)C(=O)OCC(=O)[C@@]12O[C@H](C3CCCCC3)O[C@@H]1C[C@H]1[C@@H]3CCC4=CC(=O)C=C[C@]4(C)[C@H]3[C@@H](O)C[C@@]12C [Ciclesonide, [11β,16α(R)]-16,17-[(Cyclohexylmethylen)bis(oxy)]-11-hydroxy-21-(2-methyl-1-oxoprop-oxy)pregna-1,4-dien-3,20-dione]
systemic activity relative to budesonide ([1]; compared with budesonide): three times lower | systemic activity ([1]; in vivo): low | anti-inflammatory activity relative to budesonide [2]: higher
